# Reference: patent US20250213489A1, “OSMOTIC TABLETS OF DEXPRAMIPEXOLE AND METHODS OF MANUFACTURING AND USE THEREOF” (Areteia Therapeutics, Inc., priority 2023, published 2025)
# Structures can show the parent of a compound that is named as a salt.
# How the values were obtained:
# [1] = during tablet manufacture and storage
# Source text: The chiral purity might be determined by analyzing a sample of dexpramipexole, or a pharmaceutically acceptable salt thereof, by high performance liquid chromatography (HPLC).
# dopamine receptors = settings: cited from earlier work
# eosinophils = settings: human blood and tissues; cited from earlier work
chiral purity over time [1],Compound,affinity for dopamine receptors compared to pramipexole (dopamine receptors),effect on eosinophil counts (eosinophils)
did not change over time,CCCN[C@@H]1CCc2nc(N)sc2C1 [dexpramipexole dihydrochloride monohydrate],,
,"CCCN[C@@H]1CCc2nc(N)sc2C1 [dexpramipexole, (6R)-2-amino-4,5,6,7-tetrahydro-6-(propylamino)benzothiazole]",greatly reduced,selectively and significantly lower eosinophil counts
